# Like-named read-outs stand apart in the source and are kept apart here.
# Columns and labels:
# ERα+/PR− tumors = conditions: postmenopausal women, follow-up 6 years, compared to patients treated with tamoxifen; cited from earlier work
# [1] = test system: stage II primary breast carcinoma; test: Controlled, randomized adjuvant tamoxifen trial; Kaplan-Meier survival analysis by CRABP2 level on breast cancer TMA; assay type: in vivo, human
# Text: Median age at diagnosis was 45 (25-57) years. Median follow-up was 13.9 years and less than 2% of the patients had received adjuvant chemotherapy. The study design is described in detail elsewhere (Rydén et al, Eur J Cancer, 2005, 41(2): 256-64). Ethical permission was obtained from the Local Ethics Committees at Lund and Linköping Universities.
# All cases had been histopathologically re-evaluated on hematoxylin and eosin stained slides. TMA:s were then constructed by sampling 2×0.6 mm cores per case from areas representative of invasive cancer. The TMA:s were prepared and automated immunohistochemistry was performed as described in section 3 above, using the CRABP2 antibody prepared as described in section 2 above.
# As with “staining intensity” in Examples, Section 3 above, ni was subjectively evaluated in accordance to standards used in clinical histo-pathological diagnostics and outcome was classified as: absent (O)=no immunoreactivity, weak (1)=faint immunoreactivity, moderate (2)=medium immunoreactivity or strong (3)=distinct and strong immunoreactivity. Further, as with “the fraction of stained cells” in Examples, Section 3 above, nf was classified as <2%, 2-25%, 26-75% or >75%. Two categories were defined: “CRABP2 low” corresponding to nf<=25% and ni=0-1; and “CRABP2 high” corresponding to nf>25% and/or ni=2-3 (FIG. 1). This classification of samples was used for recurrence free survival (RFS) or breast cancer specific survival ([…]) analysis according to the Kaplan-Meier estimator, and the log-rank test was used to compare survival in different strata. All statistical tests were two-sided, and p-values of <[…] were considered significant. All calculations were made with the statistical package SPSS 12.0 (SPSS Inc. Illinois, USA).
# breast cancer [2] = conditions: cited from earlier work
# ERα+/PR+ tumors = conditions: cited from earlier work
# [3] = test system: ERα positive breast cancer; conditions: cited from earlier work
# breast cancer [4] = conditions: five years adjuvant tamoxifen after primary surgery; ER positive tumors, irrespective of lymph node status; cited from earlier work
compound,measurement,setting,value
CC(C)(C#N)c1cc(Cn2cncn2)cc(C(C)(C)C#N)c1 [anastrozole],recurrence rate,ERα+/PR− tumors,halved
CC/C(=C(\c1ccccc1)c1ccc(OCCN(C)C)cc1)c1ccccc1 [tamoxifen],recurrence free survival (RFS),"[1]; CRABP2 high tumors, irrespective of ER status, adjuvant tamoxifen 2 years vs control (FIG. 3B)",improved survival
same,recurrence free survival (RFS),"[1]; CRABP2 low tumors, irrespective of ER status, tamoxifen vs control (FIG. 3A)",no impact on survival
same,recurrence free survival (RFS),"[1]; ERα+ and CRABP2 high, tamoxifen vs control (FIG. 4B)",a trend towards a positive response
same,recurrence free survival (RFS),"[1]; ERα+ and CRABP2 low, tamoxifen vs control (FIG. 4A)",a trend towards a positive response
same,recurrence free survival (RFS),"[1]; ERα− and CRABP2 high, tamoxifen vs control (FIG. 5B)",positively affected
same,breast cancer specific survival (BCSS),"[1]; ERα− and CRABP2 high, tamoxifen vs control (FIG. 6B)",better trend
same,recurrence free survival (RFS),"[1]; ERα− and CRABP2 low, tamoxifen vs control (FIG. 5A)",negatively affected
same,breast cancer specific survival (BCSS),"[1]; ERα− and CRABP2 low, tamoxifen vs control (FIG. 6A)",worse trend
same,recurrence free survival (RFS),"[1]; ERα− and PR−, CRABP2 high, tamoxifen vs control (FIG. 11b)",better trend
same,breast cancer specific survival (BCSS),"[1]; ERα− and PR−, CRABP2 high, tamoxifen vs control (FIG. 12b)",better trend
same,recurrence free survival (RFS),"[1]; ERα− and PR−, CRABP2 low, tamoxifen vs control (FIG. 11a)",worse trend
same,breast cancer specific survival (BCSS),"[1]; ERα− and PR−, CRABP2 low, tamoxifen vs control (FIG. 12a)",worse trend
same,recurrence free survival (RFS),"[1]; ERα− and/or PR−, CRABP2 high, tamoxifen vs control (FIG. 9b)",better trend
same,breast cancer specific survival (BCSS),"[1]; ERα− and/or PR−, CRABP2 high, tamoxifen vs control (FIG. 10b)",better trend
same,recurrence free survival (RFS),"[1]; ERα− and/or PR−, CRABP2 low, tamoxifen vs control (FIG. 9a)",worse trend
same,breast cancer specific survival (BCSS),"[1]; ERα− and/or PR−, CRABP2 low, tamoxifen vs control (FIG. 10a)",worse trend
same,recurrence free survival (RFS),"[1]; PR− and CRABP2 high, tamoxifen vs control (FIG. 7B)",better survival probability trend
same,breast cancer specific survival (BCSS),"[1]; PR− and CRABP2 high, tamoxifen vs control (FIG. 8B)",better trend
same,recurrence free survival (RFS),"[1]; PR− and CRABP2 low, tamoxifen vs control (FIG. 7A)",negatively affected
same,breast cancer specific survival (BCSS),"[1]; PR− and CRABP2 low, tamoxifen vs control (FIG. 8A)",worse trend
same,recurrence-free and overall survival,"breast cancer [2]; high PR level, >75% nuclear fraction, irrespectively of ERα status",significantly correlated with an increased recurrence-free and overall survival
same,recurrence-free and overall survival,"breast cancer [2]; lower PR level, <75%",no positive effect
same,disease free survival,"ERα+/PR+ tumors; older patients (≧60 years), ERα+/PR+ tumors, tamoxifen vs no adjuvant treatment",significantly longer disease free survival
same,disease free survival,ERα+/PR+ tumors; younger patients (<60 years),no significant effect
same,ERα positive patients that do not respond to treatment,[3],30-40%
same,breast cancer mortality,breast cancer [4],reduces the breast cancer mortality

# Source: patent US20110003854A1, “BREAST CANCER TREATMENT AND TREATMENT PREDICTION” (priority 2007, published 2011)
